A short description of series [1]: Plasma protein binding in human. Format: ADME, cell-free.
Another series deals with Bacillus anthracis. The experiment in a line: Antimicrobial activity against Bacillus anthracis. Format: functional, organism-based.
Another series concerns Klebsiella pneumoniae. The series is described as follows: Antimicrobial activity against Klebsiella pneumoniae. Format: functional, organism-based.
Series [2] in a line: Apparent permeability from apical to basolateral side in human Caco2 cells. It counts as ADME, cell-based. The note with it: caco-2. For orientation: Caco-2 monolayers are a common model of the intestinal barrier.
Another series deals with Staphylococcus aureus. The experiment in a line: Antimicrobial activity against Staphylococcus aureus. It counts as functional, organism-based.
The test system of another series is Streptococcus pneumoniae. The experiment in a line: Antimicrobial activity against Streptococcus pneumoniae. It counts as functional, organism-based.
The next series deals with Vero. The series is described as follows: Cytotoxicity against African green monkey Vero cells by cell titer glo assay. It counts as cell-based. The note with it: Chlorocebus sabaeus. For orientation: Cellular ATP, detected with luciferase, serves as a proxy for viable cell number.
Another series concerns Streptococcus pyogenes. The experiment in a line: Antimicrobial activity against Streptococcus pyogenes. Format: functional, organism-based.
The next series relates to Acinetobacter baumannii. The series is described as follows: Antimicrobial activity against Acinetobacter baumannii. It counts as functional, organism-based.
Series [3] can be described thus: Half life in mouse liver microsomes. Format: ADME. The note with it: for t1/2: microsomes. Background: Liver microsomes are vesicles of endoplasmic reticulum, rich in cytochrome P450 enzymes.
Series [4] has as its system Mycobacterium tuberculosis. The series is described as follows: Antimicrobial activity against Mycobacterium tuberculosis H37Rv assessed as growth inhibition after 7 days by microbroth dilution method. It counts as functional. The note with it: 168 h.
A further series deals with Escherichia coli. The experiment in a line: Antimicrobial activity against Escherichia coli. Format: functional, organism-based.
The test system of the next series is Enterococcus faecalis. The experiment in a line: Antimicrobial activity against Enterococcus faecalis. Format: functional, organism-based.
Series [5] is described as follows: Apparent permeability from basolateral to apical side in human Caco2 cells. It counts as ADME, cell-based. The note with it: caco-2.
The subject of the next series is Bacillus subtilis. The series is described as follows: Antimicrobial activity against Bacillus subtilis. It counts as functional, organism-based.

The record followed here is ChEMBL document CHEMBL3745652, “Synthesis and evaluation of pretomanid (PA-824) oxazolidinone hybrids” (Bioorg Med Chem Lett, 2016).

As usually defined, the Papp is a coefficient for how fast a substance crosses the barrier. The term IC50 denotes the point on the concentration scale where inhibition reaches its midpoint. A word on the MIC: it is the lowest concentration found to suppress growth. As a reminder, the half-life is the time needed for the level to fall by half in the phase considered.

Structures are written as SMILES. Converted amounts (≈) assume the structure as drawn. The source made the active and inactive calls.

As for `O=C1CSCCN1c1ccc(CO[C@@H]2COc3nc([N+](=O)[O-])cn3C2)cc1F`, in series [1], the PPB is reported as 77.6%. Besides, the result in the series with Bacillus anthracis, in the series with Klebsiella pneumoniae, in the series on Staphylococcus aureus, in the series on Streptococcus pneumoniae, in the series on Streptococcus pyogenes and in the series with Acinetobacter baumannii was inactive. In addition, the result in the series on Escherichia coli, with Enterococcus faecalis and in the series on Bacillus subtilis was inactive. Also, the Papp came out at 33.39 ×10⁻⁶ cm/s in series [2] and 37.05 ×10⁻⁶ cm/s in [5]. In the series on Vero, this molecule yielded a half-inhibitory concentration (IC50) above 100 µg/mL. The t1/2 in series [3] is 0.6 h. For the same molecule, the MIC in series [4] amounted to 50 µg/mL (≈ 122 µM).

Consider `O=[N+]([O-])c1cn2c(n1)OC[C@@H](OCc1ccc(N3CCCCC3)cc1)C2`, for which the PPB in series [1] came out at 83%. For the same molecule, the outcome in the series on Bacillus anthracis, in the series on Klebsiella pneumoniae, in the series on Staphylococcus aureus, in the series on Streptococcus pneumoniae, in the series on Streptococcus pyogenes and in the series with Acinetobacter baumannii was inactive. For the same molecule, the result in the series with Escherichia coli, in the series with Enterococcus faecalis and in the series on Bacillus subtilis was inactive. The Papp in series [2] was 31.76 ×10⁻⁶ cm/s; in series [5] it was 26.33 ×10⁻⁶ cm/s. Moreover, the IC50 in the series on Vero was determined as 11.6 µg/mL (≈ 32.4 µM). Besides, the t1/2 in series [3] is 0.49 h. In addition, the MIC in series [4] stood at 0.39 µg/mL (≈ 1.09 µM).

Regarding `O=[N+]([O-])c1cn2c(n1)OC[C@@H](OCc1ccc(N3CCCCC3)nc1)C2`, in series [1], the PPB is 76.7%. The result in the series with Bacillus anthracis, in the series with Klebsiella pneumoniae, in the series on Staphylococcus aureus, in the series on Streptococcus pneumoniae, with Streptococcus pyogenes and in the series with Acinetobacter baumannii was inactive. Further, the result in the series with Escherichia coli, in the series on Enterococcus faecalis and with Bacillus subtilis was inactive. The Papp in series [2] stood at 37.64 ×10⁻⁶ cm/s; in [5], 29.04 ×10⁻⁶ cm/s. Further, in the series with Vero, the IC50 was above 100 µg/mL. In [3], this molecule showed a t1/2 of 1.3 h. Moreover, in series [4], the MIC was 0.78 µg/mL (≈ 2.17 µM).

Turning to `O=[N+]([O-])c1cn2c(n1)OC[C@@H](OCc1ccc(N3CCOCC3)cc1)C2`, the PPB in [1] was 39.4%. Moreover, the outcome with Bacillus anthracis, in the series on Klebsiella pneumoniae, in the series with Staphylococcus aureus, in the series with Streptococcus pneumoniae, in the series on Streptococcus pyogenes and with Acinetobacter baumannii was inactive. Further, the result with Escherichia coli, in the series on Enterococcus faecalis and in the series with Bacillus subtilis was inactive. Besides, the Papp was determined as 41.49 ×10⁻⁶ cm/s in [2] and 32.25 ×10⁻⁶ cm/s in series [5]. It took 42.3 µg/mL (≈ 117 µM) to reach half-maximal inhibition in the series on Vero (IC50). Further, the t1/2 in series [3] was 8.3 h. Moreover, the MIC in series [4] is 3.13 µg/mL (≈ 8.69 µM).

In [1], `O=C1COCCN1c1ccc(CO[C@@H]2COc3nc([N+](=O)[O-])cn3C2)cn1` gave a PPB of 27.9%. In addition, the result in the series with Bacillus anthracis, in the series on Klebsiella pneumoniae, in the series on Staphylococcus aureus, in the series on Streptococcus pneumoniae, with Streptococcus pyogenes and in the series with Acinetobacter baumannii was inactive. Further, the result in the series on Escherichia coli, in the series with Enterococcus faecalis and with Bacillus subtilis was inactive. In addition, the Papp in [2] came to 43.41 ×10⁻⁶ cm/s; in series [5] it was 23.82 ×10⁻⁶ cm/s. In the series with Vero, the IC50 is above 100 µg/mL. Also, the t1/2 in series [3] is above 4 h. Also, the MIC in series [4] worked out at 3.13 µg/mL (≈ 8.34 µM).

As to `O=C1CCCCN1c1ccc(CO[C@@H]2COc3nc([N+](=O)[O-])cn3C2)cc1F`, the PPB in series [1] is 74.8%. The result in the series on Bacillus anthracis, in the series on Klebsiella pneumoniae, in the series with Staphylococcus aureus, in the series on Streptococcus pneumoniae, with Streptococcus pyogenes and in the series on Acinetobacter baumannii was inactive. The outcome in the series on Escherichia coli, with Enterococcus faecalis and in the series on Bacillus subtilis was inactive. For the same molecule, the Papp in series [2] was 46.26 ×10⁻⁶ cm/s; in series [5] it was 30.45 ×10⁻⁶ cm/s. In the series with Vero, this molecule displayed a concentration for half-maximal inhibition (IC50) above 100 µg/mL. The t1/2 in [3] came to 3.5 h. The MIC in [4] is 3.13 µg/mL (≈ 8.02 µM).

For `O=[N+]([O-])c1cn2c(n1)OC[C@@H](OCc1ccc(N3CCSCC3)cc1)C2`, in [1], the PPB worked out at 74.5%. The result in the series with Bacillus anthracis, in the series on Klebsiella pneumoniae, with Staphylococcus aureus, with Streptococcus pneumoniae, in the series on Streptococcus pyogenes and with Acinetobacter baumannii was inactive. In addition, the result with Escherichia coli, in the series on Enterococcus faecalis and in the series with Bacillus subtilis was inactive. In addition, the Papp in series [2] came out at 26.68 ×10⁻⁶ cm/s; in series [5], 26.13 ×10⁻⁶ cm/s. In addition, in the series with Vero, the concentration for half-maximal inhibition (IC50) is 13.7 µg/mL (≈ 36.4 µM). Also, in series [3], the t1/2 was 0.07 h. In addition, in [4], the MIC stood at 6.25 µg/mL (≈ 16.6 µM).

In series [1], `O=C1CCCCN1c1ccc(CO[C@@H]2COc3nc([N+](=O)[O-])cn3C2)cc1` had a PPB of 66.4%. Also, the result with Bacillus anthracis, in the series with Klebsiella pneumoniae, in the series on Staphylococcus aureus, with Streptococcus pneumoniae, in the series with Streptococcus pyogenes and in the series on Acinetobacter baumannii was inactive. Moreover, the result in the series with Escherichia coli, with Enterococcus faecalis and in the series on Bacillus subtilis was inactive. Further, the Papp in series [2] is 47.25 ×10⁻⁶ cm/s; in [5] it was 34.2 ×10⁻⁶ cm/s. The IC50 with Vero is above 100 µg/mL. This molecule also came in with a t1/2 in series [3] of 6.7 h. Besides, in [4], the MIC was 1.56 µg/mL (≈ 4.19 µM).

With `O=C1CSCCN1c1ccc(CO[C@@H]2COc3nc([N+](=O)[O-])cn3C2)cc1`, the PPB in series [1] is listed as 59.8%. Also, the result with Bacillus anthracis, in the series with Klebsiella pneumoniae, in the series with Staphylococcus aureus, with Streptococcus pneumoniae, in the series on Streptococcus pyogenes and in the series with Acinetobacter baumannii was inactive. Moreover, the outcome with Escherichia coli, with Enterococcus faecalis and with Bacillus subtilis was inactive. The Papp in [2] is 39.56 ×10⁻⁶ cm/s; in series [5] it was 38.05 ×10⁻⁶ cm/s. This molecule returned an IC50 in the series with Vero above 100 µg/mL. In series [3], this molecule displayed a t1/2 of 0.51 h. For the same molecule, the MIC in series [4] turned out to be 25 µg/mL (≈ 64 µM).

As to `O=[N+]([O-])c1cn2c(n1)OC[C@@H](OCc1ccc(N3CCCCC3)c(F)c1)C2`, the PPB in series [1] is 85.6%. The outcome in the series with Bacillus anthracis, in the series on Klebsiella pneumoniae, in the series on Staphylococcus aureus, in the series on Streptococcus pneumoniae, in the series on Streptococcus pyogenes and in the series on Acinetobacter baumannii was inactive. In addition, the outcome in the series with Escherichia coli, in the series with Enterococcus faecalis and in the series with Bacillus subtilis was inactive. Also, the Papp in [2] was found to be 35.46 ×10⁻⁶ cm/s; in series [5] it was 28.47 ×10⁻⁶ cm/s. This molecule showed an IC50 in the series with Vero of 56.2 µg/mL (≈ 149 µM). The same molecule gave a t1/2 in series [3] of 0.41 h. Moreover, the MIC in series [4] is below 0.2 µg/mL.

Consider `O=C1CSCCN1c1ccc(CO[C@@H]2COc3nc([N+](=O)[O-])cn3C2)cn1`, for which the PPB in series [1] is on record as 32.1%. Besides, the result in the series with Bacillus anthracis, in the series with Klebsiella pneumoniae, in the series on Staphylococcus aureus, in the series on Streptococcus pneumoniae, in the series on Streptococcus pyogenes and in the series on Acinetobacter baumannii was inactive. The result in the series with Escherichia coli, in the series on Enterococcus faecalis and in the series with Bacillus subtilis was inactive. Besides, the values for the Papp in series [2] and in [5] were 40 ×10⁻⁶ cm/s and 31.44 ×10⁻⁶ cm/s, respectively. In addition, the IC50 with Vero is 15.3 µg/mL (≈ 39.1 µM). The molecule also gave a t1/2 in [3] of 0.63 h. Moreover, in [4], the MIC was 50 µg/mL (≈ 128 µM).

In series [1], `O=[N+]([O-])c1cn2c(n1)OC[C@@H](OCc1ccc(OC(F)(F)F)cc1)C2` [PRETOMANID] returned a PPB of 92.9%. Besides, the result in the series on Bacillus anthracis, with Klebsiella pneumoniae, in the series on Staphylococcus aureus, with Streptococcus pneumoniae, in the series with Streptococcus pyogenes and in the series on Acinetobacter baumannii was inactive. In addition, the outcome in the series with Escherichia coli, with Enterococcus faecalis and in the series with Bacillus subtilis was inactive. Moreover, the apparent permeability coefficient (Papp) stood at 31.58 ×10⁻⁶ cm/s in series [2] and 13.14 ×10⁻⁶ cm/s in series [5]. This molecule also showed an IC50 with Vero of 44 µg/mL (≈ 122 µM). Further, the half-life in [3] (liver microsomes) was 8.1 h. For the same molecule, the MIC in series [4] was determined as 0.39 µg/mL (≈ 1.09 µM).

Regarding `CC(=O)NC[C@H]1CN(c2ccc(N3CCOCC3)c(F)c2)C(=O)O1` [LINEZOLID], in series [1], the PPB came out at 17.8%. Moreover, the MIC in series [4] stood at 0.3 µg/mL (≈ 0.889 µM).
